Reference: patent US20240132519A1, “NRF2-ACTIVATING COMPOUND” (SENJU PHARMACEUTICAL CO., LTD., priority 2020, published 2024)

Target: binding between NRF2 and KEAP1 (Homo sapiens (Human), UniProt Q14145)
Test: Binding assay: inhibition of binding between NRF2 and KEAP1 by BRET (NanoLuc-NRF2 and KEAP1-HaloTag cell lysates)
Conditions: Test Example 1-1; NRF2-KEAP1 BRET; N=2
Protocol: The inhibitory activity of each compound on the binding between NRF2 and KEAP1 was measured by bioluminescence resonance energy transfer (BRET) assay. A plasmid having human NRF2 (Original Clone ID: ha01449s1) sequence fused with NanoLuc (19 kDa, Promega) at the N-terminal was transduced into HCE-T cells (immortalized human corneal epithelial cells) using FuGENE HD (Promega). 48 hours after transduction, the cell lysate was collected and used as an NRF2-expressing cell lysate. A plasmid having human KEAP1 (Original Clone ID: cs00328) sequence fused with HaloTag (33 kDa, Promega) at the C-terminal was transduced into HCE-T cells using FuGENE HD (Promega). After 24 hours, HaloTag Nano BRET 618 Ligand (Promega) was added to the medium. The cell lysate cultured for 24 hours after the addition was used as a KEAP1-expressing cell lysate.
The NRF2-expressing cell lysate and the KEAP1-expressing cell lysate were adjusted so that the luminescence and fluorescence intensities per well were constant. Tables 1 and 2 show the formulation of each reaction solution.
Each test substance at a concentration 100 times higher than the test concentration was dissolved in dimethylsulfoxide for adjustment. 49 μL of KEAP1 solution was added to a 96-well polystyrene microplate (FALCON) to which 1 μL of each test substance solution was added, followed by incubation for 15 minutes. Then, 50 μL of NRF2 solution was added to the above solution, followed by incubation for 1 hour. To measure the binding between NRF2 and KEAP1, NanoBRET Nano-Glo Substrate (Promega) diluted with Opti-Mem (Thermo Fisher Scientific) was added, followed by shaking for 30 seconds. Then, luminescence and fluorescence were measured using the GloMax Discover System (Promega). A 495-nm short pass filter and a 600-nm long pass filter were respectively used to measure donor and acceptor emission values. A value obtained by dividing the acceptor emission value by the donor emission value was regarded as BRET value. A BRET value when the compound was not added, and a BRET value when the KEAP1 solution was not added were respectively used as binding rates of 100% and 0%, and the binding rate when the compound was added was calculated. Further, using this binding rate, the 50% binding inhibitory activity concentration (IC50) was calculated from the following formula. The test was performed at N=2.
IC50(M)=10^(LOG(A/B)×(50−C)/(D−C)+LOG(B)) • A: higher concentration out of 2 close concentrations across the inhibition rate of 50% • B: lower concentration out of 2 close concentrations across the inhibition rate of 50% • C: inhibition rate at B • D: inhibition rate at A
Compounds A1/A2, compounds B1/B2, compounds C1/C2, and compounds D1/D2 were used as test substances. Binding assay and reporter assay were performed as in Test Example 1-1 and Test Example 1-2.

Sequence of binding between NRF2 and KEAP1 (Q14145 whole entry): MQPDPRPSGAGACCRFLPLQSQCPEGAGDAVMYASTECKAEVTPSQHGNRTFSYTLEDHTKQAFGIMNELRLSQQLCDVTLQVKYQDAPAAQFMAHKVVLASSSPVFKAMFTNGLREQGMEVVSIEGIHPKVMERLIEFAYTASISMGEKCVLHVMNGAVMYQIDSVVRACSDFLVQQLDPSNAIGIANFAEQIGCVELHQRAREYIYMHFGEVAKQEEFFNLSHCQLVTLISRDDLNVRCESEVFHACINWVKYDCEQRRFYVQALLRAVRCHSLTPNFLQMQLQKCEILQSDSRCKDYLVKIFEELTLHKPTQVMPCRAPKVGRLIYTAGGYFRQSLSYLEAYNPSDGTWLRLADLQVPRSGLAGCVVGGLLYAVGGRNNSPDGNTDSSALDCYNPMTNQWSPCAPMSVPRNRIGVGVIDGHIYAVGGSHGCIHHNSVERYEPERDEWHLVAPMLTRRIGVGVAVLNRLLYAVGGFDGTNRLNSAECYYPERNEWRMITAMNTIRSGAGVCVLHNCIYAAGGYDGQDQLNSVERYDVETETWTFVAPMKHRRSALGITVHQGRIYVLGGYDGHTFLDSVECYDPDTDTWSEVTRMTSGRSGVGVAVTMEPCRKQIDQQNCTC

Compound	IC50 [nM]
CC[C@@H]1CN(Cc2cc(C(c3cc(F)c(C(C)=O)s3)C(C)(C)C(=O)O)ccc2C)S(=O)(=O)c2ccccc2O1 (stereo partly drawn) [Compound 11, 3-(5-acetyl-4-fluorothiophen-2-yl)-3-(3-{[(R)-4-ethyl-1,1-dioxide-3,4-dihydro-2H-benzo[b][1,4,5]oxathiazepin-2-yl]methyl}-4-methylphenyl)-2,2-dimethylpropanoic acid]	0.23
CC[C@@H]1CN(Cc2cc(C(CC(=O)O)c3ccc(C(C)=O)s3)ccc2C)S(=O)(=O)c2ccccc2O1 (stereo partly drawn) [Compound 5, 3-(5-acetylthiophen-2-yl)-3-(3-{[(R)-4-ethyl-1,1-dioxide-3,4-dihydro-2H-benzo[b][1,4,5]oxathiazepin-2-yl]methyl}-4-methylphenyl)propanoic acid]	0.23
CC[C@@H]1CN(Cc2cc(C(c3ccc(C(C)=O)s3)C(C)C(=O)O)ccc2C)S(=O)(=O)c2ccccc2O1 (stereo partly drawn) [Compound 1, 3-(5-acetylthiophen-2-yl)-3-(3-{[(R)-4-ethyl-1,1-dioxide-3,4-dihydro-2H-benzo[b][1,4,5]oxathiazepin-2-yl]methyl}-4-methylphenyl)-2-methylpropanoic acid]	0.24
CC[C@@H]1CN(Cc2cc(C(CC(=O)O)c3ccc(C(C)=O)s3)ccc2C)S(=O)(=O)c2cnccc2O1 (stereo partly drawn) [Compound 53, 3-(5-acetylthiophen-2-yl)-3-(3-{[(R)-4-ethyl-1,1-dioxide-3,4-dihydro-2H-pyrido[4,3-b][1,4,5]oxathiazepin-2-yl]methyl}-4-methylphenyl)propanoic acid]	2.3
CC[C@@H]1CN(Cc2cc(C(c3cc(F)c(C(C)=O)s3)C(C)(C)C(=O)O)ccc2C)S(=O)(=O)c2cnccc2O1 (stereo partly drawn) [Compound 49, 3-(5-acetyl-4-fluorothiophen-2-yl)-3-(3-{[(R)-4-ethyl-1,1-dioxide-3,4-dihydro-2H-pyrido[4,3-b][1,4,5]oxathiazepin-2-yl]methyl}-4-methylphenyl)-2,2-dimethylpropanoic acid]	0.31
3-(3-{[(R)-4-ethyl-1,1-dioxide-3,4-dihydro-2H-benzo[b][1,4,5]oxathiazepin-2-yl]methyl}-4-methylphenyl)-3-(5-sulfamoylthiophen-2-yl)propanoic acid [Compound 18]	35
CC[C@@H]1CN(Cc2cc(C(c3ccc(C(C)=O)s3)C(C)(C)C(=O)O)ccc2C)S(=O)(=O)c2ccccc2O1 (stereo partly drawn) [Compound 6, 3-(5-acetylthiophen-2-yl)-3-(3-{[(R)-4-ethyl-1,1-dioxide-3,4-dihydro-2H-benzo[b][1,4,5]oxathiazepin-2-yl]methyl}-4-methylphenyl)-2,2-dimethylpropanoic acid]	0.27
CC[C@@H]1CN(Cc2cc(C(CC(=O)O)c3csc(C(C)=O)c3)ccc2C)S(=O)(=O)c2ccccc2O1 (stereo partly drawn) [Compound 15, 3-(5-acetylthiophen-3-yl)-3-(3-{[(R)-4-ethyl-1,1-dioxide-3,4-dihydro-2H-benzo[b][1,4,5]oxathiazepin-2-yl]methyl}-4-methylphenyl)propanoic acid]	1.4
CC[C@@H]1CN(Cc2cc(C(CC(=O)O)c3cccs3)ccc2C)S(=O)(=O)c2ccccc2O1 (stereo partly drawn) [Compound 17, 3-(3-{[(R)-4-ethyl-1,1-dioxide-3,4-dihydro-2H-benzo[b][1,4,5]oxathiazepin-2-yl]methyl}-4-methylphenyl)-3-(thiophen-2-yl)propanoic acid]	28
CC[C@@H]1CN(Cc2cc(C(CC(=O)O)c3ccc(C#N)s3)ccc2C)S(=O)(=O)c2ccccc2O1 (stereo partly drawn) [Compound 19, 3-(5-cyanothiophen-2-yl)-3-(3-{[(R)-4-ethyl-1,1-dioxide-3,4-dihydro-2H-benzo[b][1,4,5]oxathiazepin-2-yl]methyl}-4-methylphenyl)propanoic acid]	3.1
CC(=O)c1ccc(C(c2ccc(C)c(CN3C[C@@H](C)Oc4ccccc4S3(=O)=O)c2)C(C)(C)C(=O)O)s1 (stereo partly drawn) [Compound 12, 3-(5-acetylthiophen-2-yl)-2,2-dimethyl-3-(4-methyl-3-{[(R)-4-methyl-1,1-dioxide-3,4-dihydro-2H-benzo[b][1,4,5]oxathiazepin-2-yl]methyl}phenyl)propanoic acid]	0.28
